From publication PMC7363588, “Mapping of the FGF14:Nav1.6 complex interface reveals FLPK as a functionally active peptide modulating excitability” (Physiological Reports, 2020)
Entries after “also recorded” stand apart in the source; their conditions may differ. Peptide text beside a SMILES is read from it.

Target: T1, FGF14^V160A (Homo sapiens, UniProt Q92915, V155A)
T1 construct: aa 64–252); 6X His (N); made in house; host or cells: E. coli BL21 (DE3) pLys
T1 sequence (Q92915 64-252 isoform Q92915-2 V160A): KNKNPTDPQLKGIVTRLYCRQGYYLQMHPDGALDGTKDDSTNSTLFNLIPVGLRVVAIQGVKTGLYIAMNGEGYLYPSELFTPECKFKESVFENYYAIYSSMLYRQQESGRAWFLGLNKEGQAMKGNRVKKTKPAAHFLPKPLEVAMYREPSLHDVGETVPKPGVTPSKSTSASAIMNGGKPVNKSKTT
Test: SPR binding to FGF14^V160A
Description: Plasmids used in this study derived from the following clones: human FGF14‐1b isoform (accession number: NM_175929.2) and human Nav1.6 (accession number: NM_014191.3). The CLuc‐FGF14, CD4‐Nav1.6‐NLuc, constructs and the pcDNA3.1 vector (Invitrogen, Carlsbad, CA) were engineered and characterized as previously described (Goetz et al., 2009; Shavkunov et al., 2012,2013,2015; Ali et al., 2016, 2018; Wadsworth et al., 2019). The plasmid pGL3 expressing full length Firefly (Photinus pyralis) luciferase was a gift from Dr. P. Sarkar (Department of Neurology, UTMB). For protein purification studies, cDNAs encoding FGF14‐1b (accession number NP_787125; aa 64–252) or the C‐terminal tail of Nav1.6 (accession number #NP_001171455; aa 1756–1939) were subcloned into suitable pET bacterial expression vectors (pET28a‐FGF14; pET30a‐Nav1.6) with a 6X His‐tag at the N‐terminal site; these plasmids were a gift of Dr. Moosa Mohammadi (NYU, Langone Medical Center). The mutation coding for FGF14^V160A was generated by site‐directed mutagenesis and PCR using FGF14‐1b as a template described previously (Ali et al., 2016). For electrophysiological studies FGF14‐GFP (human) and FGF14‐ΔNT‐GFP (human) were cloned into the GFP plasmid (pQBI‐fC2; Quantum Biotechnology Inc., Montreal, Canada) as previously described.
Upon transformation with corresponding cDNA clones, the recombinant proteins FGF14, FGF14^V160A and Nav1.6 C‐terminal tail were expressed in E. coli BL21 (DE3) pLys (Invitrogen) after induction with 0.1 mM isopropyl thio‐β‐D‐galacto‐pyranoside (IPTG) for 24 hr at 16°C. […]
SPR experiments were performed on a Biacore T100 (GE Healthcare Bio‐Sciences, Pittsburgh, PA), and the interaction of FGF14 and Nav1.6 channel toward FLPK, PLEV and EYYV (1–100 µM) were studied at 25°C. […] Maximal equilibrium responses were plotted against peptide concentrations and association rate constant (kon), dissociation rate constatnt (koff) were determined. […]

[1] = CM5, 25°C, 1–100 µM, RU 18,000, N.M. = not measurable

## CC(=O)N[C@@H](Cc1ccccc1)C(=O)N[C@@H](CC(C)C)C(=O)N1CCC[C@H]1C(=O)N[C@@H](CCCCN)C(N)=O [FLPK] (Ac-FLPK-NH2)
[1]
  koff, dissociation rate constant: N.M.
  kon, association rate constant: N.M.
Peptide 1–100 µM
  binding to FGF14^V160A: no measurable binding; also recorded: no binding of FLPK was detected
